Laboratory results: patent EP0655506B1 (priority 1994, dated 1995)

What follows are compounds tested against T1, T7 DNA polymerase (28 amino acid deletion in the exonuclease domain, complexed with thioredoxin), tyrosine at residue 526 (WT) (Escherichia phage T7, UniProt P00581, DEL118-145) (assay: Gel electrophoresis-based rate of incorporation of dideoxynucleotides relative to deoxynucleotides, 1:1 ratio of dNTPs to ddNTPs (Example 6)). Details: 100 µM 4dNTPs and 100 µM of one ddNTP; 5 mM MgCl2; 37 °C.
T1 construct: made in house; host or cells: strain that produces E. coli thioredoxin, lac promoter
Assay type: biochemical, bacteriophage T7
Source text: (§1) The primary application of this test is to determine the absolute ratio of incorporation of a ddNMP to a dNMP for a DNA polymerase that efficiently incorporates dideoxynucleotides, such as T7 DNA polymerase, E. coli DNA polymerase I mutant F762Y or Taq DNA polymerase mutant F667Y. It can also indicate the level of discrimination against ddNTPs of any DNA polymerase; however, for DNA polymerases that discriminate strongly against ddNTPs, such as T7 DNA polymerase mutant Y526F, E. coli DNA polymerase I or Taq DNA polymerase, higher ratios of ddNTP to dNTP are necessary to determine precisely their level of discrimination, which is described in detail in Example 7.
(§2) DNA synthesis reactions are carried out on the ^32P-end labeled 40 mer-M 13 mGP1-2 DNA template complex prepared as described in Example 3. Reaction conditions are used that are optimum for the DNA polymerase being tested with regard to buffer, pH, salts, and temperature of the reaction. A concentration of DNA polymerase is chosen whereby most of the primers are extended in a 10 min reaction and are terminated by the incorporation of a dideoxynucleotide. The reaction mixture contains 100 µM 4dNTPs and 100 µM of one of the four ddNTPs.
(§3) We used this test to compare the ability of six DNA polymerases to incorporate each of the four ddNMPs. The DNA polymerases tested were (1) T7 DNA polymerase with a 28 amino acid deletion in the exonuclease domain and complexed in a one-to-one ratio with thioredoxin (Tabor and Richardson 264 J. Biol. Chem. 6447, 1989) (referred to here as "T7 DNA polymerase"), (2) The large fragment of E. coli DNA polymerase I, commonly called the Klenow fragment (referred to here as "E. coli DNA polymerase I"), (3) Unmodified DNA polymerase from Thermus aquaticus (referred to here as "Taq DNA polymerase"), (4) T7 DNA polymerase as described above in which the tyrosine at residue 526 has been changed to a phenylalanine (referred to here as "T7 DNA polymerase Y526F"), (5) E. coli DNA polymerase I as described above in which the phenylalanine at residue 762 has been changed to a tyrosine (referred to here as "E. coli DNA polymerase I F762Y"), and (6) Taq DNA polymerase as described above in which the phenylalanine at residue 667 has been changed to a tyrosine (referred to here as "Taq DNA polymerase F667Y").
(§4) The reaction mixtures also contained 10 ng of yeast inorganic pyrophosphatase to inhibit pyrophosphorolysis that could otherwise increase the apparent discrimination by the DNA polymerase (Tabor and Richardson 265 j. Biol. Chem. 8322, 1990). The reactions were initiated by the addition of 2 µl of each DNA polymerase, diluted in 20 mM TrisHCl, pH 7.5, 10 mM 2-mercaptoethanol and 0.05% bovine serum albumin to a concentration of approximately 0.025 units/µl. The concentration of each DNA polymerase was sufficient to extend most of the labeled primers by more than 500 nucleotides in the absence of ddNTPs in a 15 min reaction. The reaction mixtures were incubated for 15 min at either 37 °C (T7 DNA polymerase, T7 DNA polymerase Y526F, E. coli DNA polymerase I, and E. coli DNA polymerase F762Y) or 70 °C (Taq DNA polymerase and Taq DNA polymerase F667Y). The reactions were terminated by the addition of 10 µl 90% formamide, 20 mM EDTA, 0.05% bromphenol blue. Each sample was heated at 90°C for 2 min immediately prior to loading 6 µl of each sample onto a gel consisting of 8% polyacrylamide, 0.4% N,N'-methylenebisacrylamide, 7 M urea in 100 mM Trisborate, pH 8.3, 1 mM EDTA. Electrophoresis was at 2000 Volts for 90 min (until the bromphenol blue had just run off the bottom of the gel). After electrophoresis, the gel was dried under vacuum, and autoradiographed. After autoradiography, the distribution of radioactively labeled fragments was determined by Phosphorimager analysis (Molecular Dynamics). […]

T1 sequence (P00581 other isoform, or with tags, fused parts or gaps DEL118-145): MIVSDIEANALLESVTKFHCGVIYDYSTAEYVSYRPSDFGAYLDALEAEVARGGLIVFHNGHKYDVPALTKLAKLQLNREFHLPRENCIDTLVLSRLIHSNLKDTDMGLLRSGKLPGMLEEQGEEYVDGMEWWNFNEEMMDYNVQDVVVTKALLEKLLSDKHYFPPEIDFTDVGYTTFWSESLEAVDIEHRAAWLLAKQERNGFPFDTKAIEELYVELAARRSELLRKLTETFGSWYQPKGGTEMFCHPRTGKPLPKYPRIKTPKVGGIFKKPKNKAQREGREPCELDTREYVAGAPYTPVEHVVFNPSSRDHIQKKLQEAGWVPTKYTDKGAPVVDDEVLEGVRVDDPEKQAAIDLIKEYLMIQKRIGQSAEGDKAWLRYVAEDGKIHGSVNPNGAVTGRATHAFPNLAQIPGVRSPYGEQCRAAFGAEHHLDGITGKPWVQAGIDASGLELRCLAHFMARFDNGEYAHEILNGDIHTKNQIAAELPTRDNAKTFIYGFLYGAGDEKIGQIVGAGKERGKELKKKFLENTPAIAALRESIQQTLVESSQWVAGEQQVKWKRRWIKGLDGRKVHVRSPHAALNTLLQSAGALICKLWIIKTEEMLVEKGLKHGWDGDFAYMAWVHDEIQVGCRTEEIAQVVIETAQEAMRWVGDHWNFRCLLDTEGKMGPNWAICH
T1 sequence (P0AA25 2-109, stated change not applied, further chain): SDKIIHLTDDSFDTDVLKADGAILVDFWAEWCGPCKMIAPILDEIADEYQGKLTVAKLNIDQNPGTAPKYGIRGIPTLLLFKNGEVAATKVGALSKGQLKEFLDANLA

Compound	D, discrimination factor (ratio of the use of a specific dNTP to the use of the comparable ddNTP at equal concentrations)
Nc1ncnc2c1ncn2[C@H]1CC[C@@H](COP(=O)(O)OP(=O)(O)OP(=O)(O)O)O1 [ddATP]	2.3
Nc1ccn([C@H]2CC[C@@H](COP(=O)(O)OP(=O)(O)OP(=O)(O)O)O2)c(=O)n1 [ddCTP]	2.7
Nc1nc2c(ncn2[C@H]2CC[C@@H](COP(=O)(O)OP(=O)(O)OP(=O)(O)O)O2)c(=O)[nH]1 [ddGTP]	2.2
Cc1cn([C@H]2CC[C@@H](COP(=O)(O)OP(=O)(O)OP(=O)(O)O)O2)c(=O)[nH]c1=O [ddTTP]	1.8

Same assay, conditions: stated to be the absolute ratios obtained in Example 6 (1:1 dNTPs to ddNTPs)

Compound	Incorporation Rate Ratios (dN/ddN)
Nc1ncnc2c1ncn2[C@H]1CC[C@@H](COP(=O)(O)OP(=O)(O)OP(=O)(O)O)O1 [ddATP]	3.3
Nc1ccn([C@H]2CC[C@@H](COP(=O)(O)OP(=O)(O)OP(=O)(O)O)O2)c(=O)n1 [ddCTP]	3.7
Nc1nc2c(ncn2[C@H]2CC[C@@H](COP(=O)(O)OP(=O)(O)OP(=O)(O)O)O2)c(=O)[nH]1 [ddGTP]	3.2
Cc1cn([C@H]2CC[C@@H](COP(=O)(O)OP(=O)(O)OP(=O)(O)O)O2)c(=O)[nH]c1=O [ddTTP]	2.8

What follows are compounds tested against T2, E. coli DNA polymerase I (Klenow fragment) F762Y (Escherichia coli, UniProt P00582, F762Y) in the same assay as above. Details: 100 µM 4dNTPs and 100 µM of one ddNTP; 5 mM MgCl2; 37 °C.
T2 construct: The large fragment of E. coli DNA polymerase I, commonly called the Klenow fragment; made in house; T7 RNA polymerase promoter; purified by ion exchange chromatography
Assay type: biochemical
Source text: as §1, §2, §3, §4

T2 sequence (P00582 324-928 F762Y): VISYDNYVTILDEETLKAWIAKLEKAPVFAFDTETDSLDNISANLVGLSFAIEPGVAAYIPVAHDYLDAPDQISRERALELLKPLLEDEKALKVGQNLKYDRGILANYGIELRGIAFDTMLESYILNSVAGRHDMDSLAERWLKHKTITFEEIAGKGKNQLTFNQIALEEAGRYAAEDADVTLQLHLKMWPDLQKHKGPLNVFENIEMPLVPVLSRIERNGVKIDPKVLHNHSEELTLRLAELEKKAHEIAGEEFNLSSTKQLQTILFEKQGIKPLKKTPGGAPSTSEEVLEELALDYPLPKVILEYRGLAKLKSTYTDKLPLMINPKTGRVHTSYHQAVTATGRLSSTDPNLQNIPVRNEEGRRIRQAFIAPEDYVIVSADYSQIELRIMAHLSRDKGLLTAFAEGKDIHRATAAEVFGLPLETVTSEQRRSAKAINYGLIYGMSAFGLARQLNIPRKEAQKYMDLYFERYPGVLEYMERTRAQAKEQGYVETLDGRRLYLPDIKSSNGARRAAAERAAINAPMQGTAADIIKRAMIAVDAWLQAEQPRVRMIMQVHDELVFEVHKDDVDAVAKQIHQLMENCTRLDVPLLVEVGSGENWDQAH

Compound	D, discrimination factor (ratio of the use of a specific dNTP to the use of the comparable ddNTP at equal concentrations)
Nc1ncnc2c1ncn2[C@H]1CC[C@@H](COP(=O)(O)OP(=O)(O)OP(=O)(O)O)O1 [ddATP]	0.72
Nc1ccn([C@H]2CC[C@@H](COP(=O)(O)OP(=O)(O)OP(=O)(O)O)O2)c(=O)n1 [ddCTP]	0.75
Nc1nc2c(ncn2[C@H]2CC[C@@H](COP(=O)(O)OP(=O)(O)OP(=O)(O)O)O2)c(=O)[nH]1 [ddGTP]	0.56
Cc1cn([C@H]2CC[C@@H](COP(=O)(O)OP(=O)(O)OP(=O)(O)O)O2)c(=O)[nH]c1=O [ddTTP]	0.54

Same assay, conditions: absolute ratios obtained in Example 6 (1:1 dNTPs to ddNTPs)

Compound	Incorporation Rate Ratios (dN/ddN)
Nc1ncnc2c1ncn2[C@H]1CC[C@@H](COP(=O)(O)OP(=O)(O)OP(=O)(O)O)O1 [ddATP]	0.72
Nc1ccn([C@H]2CC[C@@H](COP(=O)(O)OP(=O)(O)OP(=O)(O)O)O2)c(=O)n1 [ddCTP]	0.75
Nc1nc2c(ncn2[C@H]2CC[C@@H](COP(=O)(O)OP(=O)(O)OP(=O)(O)O)O2)c(=O)[nH]1 [ddGTP]	0.56
Cc1cn([C@H]2CC[C@@H](COP(=O)(O)OP(=O)(O)OP(=O)(O)O)O2)c(=O)[nH]c1=O [ddTTP]	0.54

Each compound was assayed against T3, Taq DNA polymerase F667Y (Thermus aquaticus, UniProt P19821, F667Y) in the same assay as above. Details: 100 µM 4dNTPs and 100 µM of one ddNTP; 5 mM MgCl2; 70 °C.
T3 construct: to the gene that produces the full length Taq DNA polymerase; made in house
Assay type: biochemical
Source text: as §1, §2, §3, §4

T3 sequence (P19821 whole entry F667Y): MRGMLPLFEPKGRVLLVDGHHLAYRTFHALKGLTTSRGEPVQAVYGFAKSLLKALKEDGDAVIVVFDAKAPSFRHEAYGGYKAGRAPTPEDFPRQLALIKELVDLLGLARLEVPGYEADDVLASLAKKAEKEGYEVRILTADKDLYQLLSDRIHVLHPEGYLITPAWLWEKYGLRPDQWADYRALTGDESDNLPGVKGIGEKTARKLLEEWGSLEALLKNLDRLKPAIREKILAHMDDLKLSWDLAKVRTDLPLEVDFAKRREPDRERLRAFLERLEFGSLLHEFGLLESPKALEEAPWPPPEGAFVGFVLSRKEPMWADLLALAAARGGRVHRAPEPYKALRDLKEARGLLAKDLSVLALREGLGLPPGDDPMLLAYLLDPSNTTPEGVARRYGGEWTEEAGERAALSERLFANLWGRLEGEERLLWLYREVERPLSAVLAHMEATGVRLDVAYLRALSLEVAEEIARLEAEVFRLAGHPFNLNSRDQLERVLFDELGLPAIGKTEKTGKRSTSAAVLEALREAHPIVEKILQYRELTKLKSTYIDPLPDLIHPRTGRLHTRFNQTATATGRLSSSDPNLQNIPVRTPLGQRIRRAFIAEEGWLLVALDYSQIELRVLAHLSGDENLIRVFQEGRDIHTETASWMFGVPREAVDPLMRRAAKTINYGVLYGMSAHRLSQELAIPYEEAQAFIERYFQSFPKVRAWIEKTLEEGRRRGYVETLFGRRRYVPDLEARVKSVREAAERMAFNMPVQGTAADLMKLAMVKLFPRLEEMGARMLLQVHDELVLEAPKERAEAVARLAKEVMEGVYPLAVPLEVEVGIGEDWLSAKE

Compound	D, discrimination factor (ratio of the use of a specific dNTP to the use of the comparable ddNTP at equal concentrations)
Nc1ncnc2c1ncn2[C@H]1CC[C@@H](COP(=O)(O)OP(=O)(O)OP(=O)(O)O)O1 [ddATP]	0.59
Nc1ccn([C@H]2CC[C@@H](COP(=O)(O)OP(=O)(O)OP(=O)(O)O)O2)c(=O)n1 [ddCTP]	0.32
Nc1nc2c(ncn2[C@H]2CC[C@@H](COP(=O)(O)OP(=O)(O)OP(=O)(O)O)O2)c(=O)[nH]1 [ddGTP]	0.45
Cc1cn([C@H]2CC[C@@H](COP(=O)(O)OP(=O)(O)OP(=O)(O)O)O2)c(=O)[nH]c1=O [ddTTP]	0.56

Same assay, conditions: absolute ratios obtained in Example 6 (1:1 dNTPs to ddNTPs)

Compound	Incorporation Rate Ratios (dN/ddN)
Nc1ncnc2c1ncn2[C@H]1CC[C@@H](COP(=O)(O)OP(=O)(O)OP(=O)(O)O)O1 [ddATP]	0.59
Nc1ccn([C@H]2CC[C@@H](COP(=O)(O)OP(=O)(O)OP(=O)(O)O)O2)c(=O)n1 [ddCTP]	0.32
Nc1nc2c(ncn2[C@H]2CC[C@@H](COP(=O)(O)OP(=O)(O)OP(=O)(O)O)O2)c(=O)[nH]1 [ddGTP]	0.45
Cc1cn([C@H]2CC[C@@H](COP(=O)(O)OP(=O)(O)OP(=O)(O)O)O2)c(=O)[nH]c1=O [ddTTP]	0.56
